Laboratory results published in PubChem BioAssay (NCI).
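Each compound was tested at five concentrations against cells in 96-well plates for 48 hours. At the TGI there is no net growth.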

Columns and labels:
Test in all cases: DTP human tumour cell line panel, 48 h
A549 NSCLC = test system: A549 NSCLC
COLO 205 colon = test system: COLO 205 colon
SK-MEL-2 melanoma = test system: SK-MEL-2 melanoma
MOLT-4 leukemia = test system: MOLT-4 leukemia
NCI-H522 lung = test system: NCI-H522 lung
SN12C renal = test system: SN12C renal
SR leukemia = test system: SR leukemia
SK-MEL-28 melanoma = test system: SK-MEL-28 melanoma
OVCAR-3 ovarian = test system: OVCAR-3 ovarian
UACC-257 melanoma = test system: UACC-257 melanoma
MDA-MB-231 breast = test system: MDA-MB-231 breast
HOP-62 NSCLC = test system: HOP-62 NSCLC
DU-145 prostate = test system: DU-145 prostate
PC-3 prostate = test system: PC-3 prostate
K-562 leukemia = test system: K-562 leukemia
BT-549 breast = test system: BT-549 breast
SF-295 CNS = test system: SF-295 CNS
RPMI-8226 leukemia = test system: RPMI-8226 leukemia
LOX IMVI melanoma = test system: LOX IMVI melanoma
786-0 renal = test system: 786-0 renal
ACHN renal = test system: ACHN renal
TK-10 renal = test system: TK-10 renal
HT29 colon = test system: HT29 colon
HCT-15 colon = test system: HCT-15 colon
RXF 393 renal = test system: RXF 393 renal
T-47D breast = test system: T-47D breast
NCI-H460 lung = test system: NCI-H460 lung
SK-OV-3 ovarian = test system: SK-OV-3 ovarian
OVCAR-8 ovarian = test system: OVCAR-8 ovarian
NCI-H23 lung = test system: NCI-H23 lung
M14 melanoma = test system: M14 melanoma
NCI-H226 lung = test system: NCI-H226 lung
SF-268 CNS = test system: SF-268 CNS
HS 578T breast = test system: HS 578T breast
A498 renal = test system: A498 renal
KM12 colon = test system: KM12 colon
EKVX NSCLC = test system: EKVX NSCLC
HOP-92 NSCLC = test system: HOP-92 NSCLC
SNB-19 CNS = test system: SNB-19 CNS
SW-620 colon = test system: SW-620 colon
HCT-116 colon = test system: HCT-116 colon
U251 CNS = test system: U251 CNS
HCC-2998 colon = test system: HCC-2998 colon
CCRF-CEM leukemia = test system: CCRF-CEM leukemia
NCI/ADR-RES ovarian = test system: NCI/ADR-RES ovarian
SK-MEL-5 melanoma = test system: SK-MEL-5 melanoma
MDA-N = test system: MDA-N
UACC-62 melanoma = test system: UACC-62 melanoma
HL-60(TB) leukemia = test system: HL-60(TB) leukemia
MCF7 breast = test system: MCF7 breast
UO-31 renal = test system: UO-31 renal
IGROV1 ovarian = test system: IGROV1 ovarian
MDA-MB-435 = test system: MDA-MB-435
MALME-3M melanoma = test system: MALME-3M melanoma
OVCAR-5 ovarian = test system: OVCAR-5 ovarian
SNB-78 CNS = test system: SNB-78 CNS
KM20L2 colon = test system: KM20L2 colon
SNB-75 CNS = test system: SNB-75 CNS
OVCAR-4 ovarian = test system: OVCAR-4 ovarian
CAKI-1 renal = test system: CAKI-1 renal
DMS 114 small cell lung = test system: DMS 114 small cell lung

Measured: TGI

Cc1nc(-c2cc3cc(Cl)ccc3oc2=O)cc2c1c(=O)oc1ccc(Cl)cc12
not listed: MALME-3M melanoma | OVCAR-5 ovarian | SNB-78 CNS | KM20L2 colon | SNB-75 CNS | OVCAR-4 ovarian | CAKI-1 renal | DMS 114 small cell lung
> 100 µM: all other assays above

CCC1CNC(=O)CC1CC(=O)OC (stereo not given)
not listed: COLO 205 colon | UACC-257 melanoma | MDA-MB-231 breast | DU-145 prostate | PC-3 prostate | BT-549 breast | SF-295 CNS | RPMI-8226 leukemia | HT29 colon | T-47D breast | NCI-H460 lung | OVCAR-8 ovarian | HS 578T breast | A498 renal | CCRF-CEM leukemia | NCI/ADR-RES ovarian | MDA-N | MCF7 breast | MDA-MB-435
> 100 µM: all other assays above
